Assays:
[1] = biological target: JAK1 (Homo sapiens, UniProt P23458); experiment: Kinase activity test (γ33P-ATP isotopic method), JAK1; type: biochemical; details: for IC50: 33P-ATP 10 μM, 2 h reaction; for activity in inhibiting the JAK1 kinase compared with Tofacitinib (in words): conclusion from Table 1
Procedure: (§1) This experiment adopted a γ^33p-ATP isotopic test method to test the inhibitory effect of a compound on kinases JAK1, JAK2, JAK3 and TYK2, and obtained a half inhibitory concentration IC50 of the compound for inhibiting activity of the kinase.
(§2) 20 mM 4-hydroxyethylpiperazine ethanesulfonic acid buffer (Hepes, pH 7.5), 10 mM magnesium chloride (MgCl2), 1 mM ethylene glycol diethyl ether diamine tetraacetic acid (EGTA), 0.02% dodecyl polyethylene glycol ether (Brij35), 0.02 mg/ml bovine serum albumin (BSA), 0.1 mM sodium vanadate (Na3VO4), 2 mM dithiothreitol (DTT), and 1% dimethylsulfoxide (DMSO).
(§3) A compound is dissolved with 100% DMSO to a specific concentration, and then subjected to gradient dilution by an automatic sampling device to obtain the samples to be tested with different concentrations (DMSO solutions).
(§4) 3.1 diluting the reaction substrate with the basic reaction buffer;
(§5) 3.2 adding the kinase into the substrate solution, and gently mixing well;
(§6) 3.3 adding, by the automatic sampling system, the 100% DMSO diluted compounds with different concentrations into the kinase solution, and incubating for 20 min at room temperature; and
(§7) 3.4 adding ^33p-ATP (10 μM, 10 μCi/μl) at room temperature to initiate the kinase reaction for a duration of 2 h.
(§8) The unreacted ATP and the reaction-generated […] in the reaction were removed by an ion exchange filtering system, and then the amount of radioactivity of ^33p isotope in the substrate was detected.
(§9) According to the amount of radioactivity, the kinase activities in the systems added with the inhibitors of different concentrations were calculated, to obtain the inhibitors' effects of the compounds of different concentrations on the kinase activity; and fitting was performed with graphpad prism to obtain the inhibitory IC50 values of the compounds.

[2] = biological target: TYK2 (Homo sapiens, UniProt P29597); experiment: Kinase activity test (γ33P-ATP isotopic method), TYK2; type: biochemical; details: 33P-ATP 10 μM, 2 h reaction
Procedure: as §1, §2, §3, §4, §5, §6, §7, §8, §9

[3] = biological target: T1, JAK3 (Homo sapiens, UniProt P52333); experiment: Kinase activity test (γ33P-ATP isotopic method), JAK3; type: biochemical; details: 33P-ATP 10 μM, 2 h reaction
T1 sequence (P52333 1-1124): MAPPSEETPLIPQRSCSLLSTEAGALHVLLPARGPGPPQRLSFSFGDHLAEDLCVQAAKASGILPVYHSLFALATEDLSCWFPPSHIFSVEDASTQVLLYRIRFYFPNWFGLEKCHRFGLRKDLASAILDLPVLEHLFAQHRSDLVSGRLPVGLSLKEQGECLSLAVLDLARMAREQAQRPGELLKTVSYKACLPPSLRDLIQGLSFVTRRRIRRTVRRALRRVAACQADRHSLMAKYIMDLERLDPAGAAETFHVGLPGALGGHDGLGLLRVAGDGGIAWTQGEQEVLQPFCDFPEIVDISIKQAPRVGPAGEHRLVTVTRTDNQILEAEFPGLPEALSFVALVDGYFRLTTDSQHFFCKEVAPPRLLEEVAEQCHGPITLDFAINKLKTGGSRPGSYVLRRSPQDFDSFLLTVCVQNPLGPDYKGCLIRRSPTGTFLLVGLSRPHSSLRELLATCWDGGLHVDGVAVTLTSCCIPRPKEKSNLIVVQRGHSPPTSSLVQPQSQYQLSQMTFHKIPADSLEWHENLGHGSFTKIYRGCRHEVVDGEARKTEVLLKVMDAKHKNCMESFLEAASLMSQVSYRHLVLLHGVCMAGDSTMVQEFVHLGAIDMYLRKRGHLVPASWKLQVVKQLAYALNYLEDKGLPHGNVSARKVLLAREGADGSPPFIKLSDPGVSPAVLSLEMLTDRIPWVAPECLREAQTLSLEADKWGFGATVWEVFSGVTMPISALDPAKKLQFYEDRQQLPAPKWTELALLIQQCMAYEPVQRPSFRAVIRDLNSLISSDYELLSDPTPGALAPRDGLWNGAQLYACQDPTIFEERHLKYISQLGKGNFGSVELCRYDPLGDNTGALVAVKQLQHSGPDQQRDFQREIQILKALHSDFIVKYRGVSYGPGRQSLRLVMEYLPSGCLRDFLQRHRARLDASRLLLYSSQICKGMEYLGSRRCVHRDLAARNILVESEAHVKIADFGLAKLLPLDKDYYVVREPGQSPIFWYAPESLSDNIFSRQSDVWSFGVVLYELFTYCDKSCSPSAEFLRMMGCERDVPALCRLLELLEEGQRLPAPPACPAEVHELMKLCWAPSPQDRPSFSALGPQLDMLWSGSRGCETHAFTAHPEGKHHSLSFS
Procedure: as §1, §2, §3, §4, §5, §6, §7, §8, §9

[4] = biological target: JAK2 (Homo sapiens, UniProt O60674); experiment: Kinase activity test (γ33P-ATP isotopic method), JAK2; type: biochemical; details: 33P-ATP 10 μM, 2 h reaction
Procedure: as §1, §2, §3, §4, §5, §6, §7, §8, §9

[5] = Liver microsome test (metabolic stability); type: in vitro ADME, human; details: for Remaining % (60 min) / half-life at 1 μmol/L / microsomal CLint at 1 μmol/L: human liver microsomes 0.5 mg/mL protein, compound 1 μmol/L, 37° C.; for half-life at 1 μmol/L / microsomal CLint at 1 μmol/L: pH 7.4; for microsomal CLint at 1 μmol/L: read-out: Clint (μL/min/mg protein)
Procedure: In an incubation system with a total volume of 250 μL, an incubation solution of hum an liver microsomes containing 0.5 mg/mL protein was formulated with a 50 mmol/L PBS buffer (pH=7.4). Before the start of incubation, 2.5 μL of a 100 μmol/L compound to be tested was mixed with 197.5 μL of the above incubation buffer, pre-incubated for 5 min in a 37° C. water bath, and then added with 50 μL of a reducing coenzyme II solution (5 mmol/L) that was likewise pre-incubated for 5 min to start a reaction (in the reaction system, the protein content of liver microsomes from various species was 0.5 g/L, and the final concentration of the compound to be tested was 1 μmol/L), incubated in a 37° C. water bath with shaking, and taken out at 0, 5, 15, 30, and 60 min respectively. 600 μL of a methanol solution of mixed positive and negative internal standards with internal standards Terfenadine (positive ion internal standard, 25 ng/mL) and Tolbutamide (negative ion internal standard, 50 ng/mL) was immediately added to terminate the reaction. The incubation solution after termination was shaken for 2 min and centrifuged (4° C., 16000 r/min) for 10 min, and the supernatant was taken for LC-MS/MS detection to quantitatively analyze the remaining amount of the parent drug. (DMSO=0.1%).
The concentration of the compound at 0 mi incubation was regarded as 100%, and the concentrations at other incubation time points were converted into the remaining percentages. The natural logarithm of the remaining percentage at each time point was linearly regressed against the incubation time, and the slope k was calculated. According to the formula T1/2=−0.693/k, the in vitro half-life was calculated. Clearance in liver microsomes (CLint (μL/min/mg protein)=Ln (2)*1000/T1/2 (min/Protein Conc (mg/ml)).

[6] = system: DSS induced mouse ulcerative colitis model; experiment: Efficacy test in DSS induced mouse ulcerative colitis model; type: in vivo; details: for DAI score on day 8: once a day, mouse DSS model, DAI range 0-4
Description: Mice of 6-7 weeks old were randomly grouped, 6 mice per group. Purified water was provided ad libitum to the mice in a negative control group, and a 2% solution of dextran sulfate sodium (DSS) was provided ad libitum to the mice in other groups, for 7 consecutive days. During the modeling, medication was given according to the groups, once a day for 7 days (the treatment groups and the mouse numbers can be adjusted according to the specific situation). Within 8-10 days later, the DSS-containing water was replaced with purified water, provided ad libitum to the mice. The normal administration continued for 3 days.
From the first day of administration, the general conditions such as metal state, eating, drinking and activities of the mice were respectively observed every day, the mice were weighed every day, and the animal stools were collected, evaluated for their traits and subjected to the occult blood test. The disease activity index (DAI) of experimental animals within 1-10 days were comprehensively assessed.
Scoring was performed according to the above-mentioned standards. The disease activity index (DAI) of each mouse was obtained by summing the scores of weight loss, stool trait and occult blood condition, to evaluate the disease activity. DAI=(score of weight loss+score of stool trait+score of bloody stool)/3, ranging from 0-4.
The experimental data was processed statistically, and the data are all expressed as mean±SD or mean±SME. The SPSS13.0 software was used for statistical analysis, and the differences among the groups were compared with t test (equal variance) or t′ test (unequal variance).

Chain of JAK1 (P23458 whole entry): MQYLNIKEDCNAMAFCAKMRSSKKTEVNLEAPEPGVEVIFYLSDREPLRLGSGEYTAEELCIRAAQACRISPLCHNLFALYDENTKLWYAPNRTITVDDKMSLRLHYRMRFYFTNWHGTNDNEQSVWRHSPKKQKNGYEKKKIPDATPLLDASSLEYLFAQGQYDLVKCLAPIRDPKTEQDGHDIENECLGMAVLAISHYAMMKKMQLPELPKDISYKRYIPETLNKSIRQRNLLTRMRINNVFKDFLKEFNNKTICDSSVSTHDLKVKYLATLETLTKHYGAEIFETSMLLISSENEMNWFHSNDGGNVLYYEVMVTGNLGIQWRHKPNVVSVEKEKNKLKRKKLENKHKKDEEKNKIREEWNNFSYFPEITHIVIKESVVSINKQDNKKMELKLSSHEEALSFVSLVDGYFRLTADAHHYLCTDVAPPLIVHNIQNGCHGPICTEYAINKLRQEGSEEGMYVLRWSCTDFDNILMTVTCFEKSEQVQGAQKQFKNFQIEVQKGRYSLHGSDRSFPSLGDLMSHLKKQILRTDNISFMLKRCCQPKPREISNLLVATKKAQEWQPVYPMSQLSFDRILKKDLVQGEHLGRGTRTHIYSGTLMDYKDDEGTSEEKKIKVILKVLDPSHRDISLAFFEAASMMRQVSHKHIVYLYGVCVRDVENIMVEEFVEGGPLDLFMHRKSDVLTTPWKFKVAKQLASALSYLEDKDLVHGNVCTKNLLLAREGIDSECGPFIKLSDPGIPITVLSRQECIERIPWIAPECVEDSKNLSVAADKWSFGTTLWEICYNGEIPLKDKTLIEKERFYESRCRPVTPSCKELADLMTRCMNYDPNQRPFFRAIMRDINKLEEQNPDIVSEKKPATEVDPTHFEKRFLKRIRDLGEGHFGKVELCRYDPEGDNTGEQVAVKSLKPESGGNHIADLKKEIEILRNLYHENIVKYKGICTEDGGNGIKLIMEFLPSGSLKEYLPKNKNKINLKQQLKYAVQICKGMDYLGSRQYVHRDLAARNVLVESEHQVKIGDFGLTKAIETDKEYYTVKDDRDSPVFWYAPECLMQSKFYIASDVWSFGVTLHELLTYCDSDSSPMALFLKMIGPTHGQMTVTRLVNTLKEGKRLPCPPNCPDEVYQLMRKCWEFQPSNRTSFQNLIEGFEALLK
Chain of JAK2 (O60674 whole entry): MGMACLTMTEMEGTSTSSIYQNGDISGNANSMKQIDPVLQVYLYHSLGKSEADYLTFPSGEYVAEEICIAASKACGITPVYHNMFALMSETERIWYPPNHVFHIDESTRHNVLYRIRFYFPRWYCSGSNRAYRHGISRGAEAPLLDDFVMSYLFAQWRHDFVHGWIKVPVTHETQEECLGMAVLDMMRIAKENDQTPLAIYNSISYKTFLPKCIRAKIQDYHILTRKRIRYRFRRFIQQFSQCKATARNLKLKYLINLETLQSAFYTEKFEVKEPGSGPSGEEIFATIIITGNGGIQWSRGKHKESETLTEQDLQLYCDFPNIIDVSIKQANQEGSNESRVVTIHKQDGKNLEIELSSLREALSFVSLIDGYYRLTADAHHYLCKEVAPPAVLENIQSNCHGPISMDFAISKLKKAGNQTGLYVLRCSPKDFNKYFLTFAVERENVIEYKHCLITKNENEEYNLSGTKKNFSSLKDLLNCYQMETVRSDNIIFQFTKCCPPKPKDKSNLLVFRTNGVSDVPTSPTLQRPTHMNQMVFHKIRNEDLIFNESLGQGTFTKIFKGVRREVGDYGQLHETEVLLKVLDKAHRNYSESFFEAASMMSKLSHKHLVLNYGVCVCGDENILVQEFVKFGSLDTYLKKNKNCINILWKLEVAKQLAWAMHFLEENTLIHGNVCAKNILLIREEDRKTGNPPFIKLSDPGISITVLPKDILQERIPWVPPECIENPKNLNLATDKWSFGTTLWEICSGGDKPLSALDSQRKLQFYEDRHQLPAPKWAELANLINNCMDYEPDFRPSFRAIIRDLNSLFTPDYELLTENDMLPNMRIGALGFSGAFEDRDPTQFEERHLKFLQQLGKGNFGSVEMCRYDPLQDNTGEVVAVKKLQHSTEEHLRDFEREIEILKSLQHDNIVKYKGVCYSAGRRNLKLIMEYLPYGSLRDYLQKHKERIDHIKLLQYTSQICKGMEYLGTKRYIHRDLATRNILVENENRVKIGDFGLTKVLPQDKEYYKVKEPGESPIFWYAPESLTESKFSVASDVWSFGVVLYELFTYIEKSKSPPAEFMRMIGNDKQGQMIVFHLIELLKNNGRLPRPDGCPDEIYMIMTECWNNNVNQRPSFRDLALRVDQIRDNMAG
Chain of TYK2 (P29597 whole entry): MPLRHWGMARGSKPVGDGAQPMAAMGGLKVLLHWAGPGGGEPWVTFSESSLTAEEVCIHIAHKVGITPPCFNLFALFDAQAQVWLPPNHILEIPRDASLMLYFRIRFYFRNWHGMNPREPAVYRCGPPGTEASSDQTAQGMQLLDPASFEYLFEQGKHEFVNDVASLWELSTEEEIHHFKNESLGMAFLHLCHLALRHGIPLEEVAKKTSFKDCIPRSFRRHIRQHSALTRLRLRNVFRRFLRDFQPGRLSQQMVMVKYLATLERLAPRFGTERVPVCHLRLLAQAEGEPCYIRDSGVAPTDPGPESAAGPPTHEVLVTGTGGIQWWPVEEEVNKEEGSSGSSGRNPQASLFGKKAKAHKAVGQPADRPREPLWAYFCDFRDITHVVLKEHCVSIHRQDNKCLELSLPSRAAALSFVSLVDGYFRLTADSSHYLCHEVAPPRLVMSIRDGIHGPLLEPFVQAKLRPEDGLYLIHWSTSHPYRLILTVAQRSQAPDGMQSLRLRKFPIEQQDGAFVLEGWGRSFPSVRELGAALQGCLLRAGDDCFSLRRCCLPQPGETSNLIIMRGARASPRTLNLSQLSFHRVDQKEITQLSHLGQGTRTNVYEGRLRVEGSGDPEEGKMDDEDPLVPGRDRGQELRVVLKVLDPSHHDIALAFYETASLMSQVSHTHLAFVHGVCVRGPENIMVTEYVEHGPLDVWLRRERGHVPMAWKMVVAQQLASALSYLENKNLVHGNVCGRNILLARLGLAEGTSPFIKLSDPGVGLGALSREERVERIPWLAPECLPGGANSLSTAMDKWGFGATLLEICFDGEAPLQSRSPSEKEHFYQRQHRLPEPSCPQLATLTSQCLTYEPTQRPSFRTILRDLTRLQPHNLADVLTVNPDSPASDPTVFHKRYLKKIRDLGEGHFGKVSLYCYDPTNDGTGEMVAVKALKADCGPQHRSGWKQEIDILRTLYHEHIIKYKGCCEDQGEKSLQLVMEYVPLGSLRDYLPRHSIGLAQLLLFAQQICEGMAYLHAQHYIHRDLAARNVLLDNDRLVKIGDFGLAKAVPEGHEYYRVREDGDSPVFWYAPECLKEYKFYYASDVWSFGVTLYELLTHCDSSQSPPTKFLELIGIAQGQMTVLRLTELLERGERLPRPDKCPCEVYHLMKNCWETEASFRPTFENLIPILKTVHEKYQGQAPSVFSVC

Structure (SMILES) | IC50 [1] | activity in inhibiting the JAK1 kinase compared with Tofacitinib (in words) [1] | IC50 [2] | IC50 [3] | IC50 [4] | Remaining % (60 min) [5] | metabolic stability in liver microsomes (in words) ([5]; human liver microsomes, conclusion from Table 2) | half-life at 1 μmol/L [5] | microsomal CLint at 1 μmol/L [5] | DAI score on day 8 ([6]; 5 mg/kg group) | DAI score on day 8 ([6]; 15 mg/kg group) | effect on DSS induced enteritis in mice (in words) ([6]; relatively low dose)
NC(=O)c1cnc2[nH]ccc2c1NN1CCC[C@@H](C(=O)NCC(F)(F)F)C1 [Example 3, (R)-4-(3-(2,2,2-trifluoroethylcarbamoyl)piperidine-1-amino)-1H-7-azaindole-5-carboxamide] | 0.41 nM | higher activity in inhibiting the JAK1 kinase than the positive drug control Tofacitinib | 9.93 nM | 8.69 nM | 11.6 nM |  |  |  |  |  |  | 
N#CCNC(=O)[C@H]1CCCN(Nc2c(C(N)=O)cnc3[nH]ccc23)C1 [Example 7] | 0.39 nM | higher activity in inhibiting the JAK1 kinase than the positive drug control Tofacitinib | 1.98 nM | 0.71 nM | 1.32 nM |  |  |  |  |  |  | 
NC(=O)c1cnc2[nH]ccc2c1NN1CCC[C@H](C(=O)NCC(F)(F)F)C1 [Example 1, (S)-4-(3-(2,2,2-trifluoroethylcarbamoyl)piperidine-1-amino)-1H-7-azaindole-5-carboxamide] | 0.29 nM | higher activity in inhibiting the JAK1 kinase than the positive drug control Tofacitinib | 3.28 nM | 2.7 nM | 2.26 nM | 59.0% | excellent metabolic activity in liver | 1.36 h | 17 µL/min/mg | 2.8 | 2 | significant effect in inhibiting the DSS induced enteritis in mice
C[C@@H]1CCN(C(=O)CC#N)C[C@@H]1N(C)c1ncnc2[nH]ccc12 [Tofacitinib, reference compound] |  |  |  |  |  | 80.7% |  | 3.3 h | 7 µL/min/mg | 3.5 |  | 
CC(C)(C)OC(=O)N1CC2CN(Nc3c(C(N)=O)cnc4[nH]ccc34)CC2C1 (stereo not shown) [Example 12] | 1.1 nM |  | 19 nM | 5.97 nM | 16.7 nM |  |  |  |  |  |  | 
CCCNC(=O)[C@H]1CCCN(Nc2c(C(N)=O)cnc3[nH]ccc23)C1 [Example 5, (S)-4-(3-(n-propylcarbamoyl)piperidine-1-amino)-1H-7-azaindole-5-carboxamide] | 1.19 nM |  | 34.7 nM | 15.9 nM | 54.8 nM |  |  |  |  |  |  | 

From patent US12304910B2, “Janus kinase (JAK) family inhibitor, preparation of same, and applications thereof” (JIANGSU VCARE PHARMATECH CO., LTD., priority 2019, dated 2025)
